# Source: US4740233A, “Substituted 1,2,4-triazolo[1,5-a]-pyrimidine-2-sulfonamides and compositions and methods of controlling undesired vegetation and suppressing the nitrification of ammonium nitrogen in soil” (The Dow Chemical Company, priority 1986, dated 1988)
# Test system: nitrification of ammonium nitrogen
# Experiment: Suppression of nitrification of ammonium nitrogen in soil
# Conditions: 27° C.
# Procedure: A sufficient volume of water was added to 20 g of the soil in a wide-mouth, screw-cap, 4-ounce, glass bottle, such that the moisture content of the mixture was made equal to the 1/3 bar tension value for that soil. The mixture was thoroughly mixed before sealing. […] Acetone slows the rate of soil nitrification and its concentration must be carefully controlled. Single samples of each test chemical were incubated for two weeks at 27° C.
# The experiment comprised the following types of samples:
# The soil samples were analyzed as follows: Sufficient ammonium sulfate extracting solution was added to the sample, such that the total volume of added water was 50 ml (included water added during sample preparation). The capped mixture was shaken 10 minutes to solubilize nitrate and the soil particulates were allowed to settle. The nitrate concentration in the water phase was determined with a nitrate-specific ion electrode such as Orion Model 93-07.
# The non-nitrate nitrogen remaining (% NH4 -N remaining) in the soil after two weeks (performance value) was calculated as follows: [formula]
compound,measurement,setting,value
CSc1cccc(C)c1NS(=O)(=O)c1nc2nc(C)cc(C)n2n1 [Compound 70],% NH4-N Remaining After 2 Weeks Incubation,0.06 ppm,0%
same,% NH4-N Remaining After 2 Weeks Incubation,0.25 ppm,29%
same,% NH4-N Remaining After 2 Weeks Incubation,1 ppm,69%
same,% NH4-N Remaining After 2 Weeks Incubation,4 ppm,87%
CSc1ccccc1NS(=O)(=O)c1nc2nc(C)ccn2n1 [Compound 142],% NH4-N Remaining After 2 Weeks Incubation,0.01 ppm,0%
same,% NH4-N Remaining After 2 Weeks Incubation,0.1 ppm,5%
same,% NH4-N Remaining After 2 Weeks Incubation,1 ppm,62%
same,% NH4-N Remaining After 2 Weeks Incubation,10 ppm,98%
COC(=O)c1cccc(C)c1NS(=O)(=O)c1nc2nc(C)ccn2n1 [Compound 146],% NH4-N Remaining After 2 Weeks Incubation,0.06 ppm,19%
same,% NH4-N Remaining After 2 Weeks Incubation,0.25 ppm,48%
same,% NH4-N Remaining After 2 Weeks Incubation,1 ppm,60%
same,% NH4-N Remaining After 2 Weeks Incubation,4 ppm,79%
Cc1cc(C)n2nc(S(=O)(=O)Nc3cc(Cl)ccc3Cl)nc2n1 [Compound 21],% NH4-N Remaining After 2 Weeks Incubation,0.01 ppm,8%
same,% NH4-N Remaining After 2 Weeks Incubation,0.1 ppm,42%
same,% NH4-N Remaining After 2 Weeks Incubation,1 ppm,68%
same,% NH4-N Remaining After 2 Weeks Incubation,10 ppm,86%
Cc1nc2nc(S(=O)(=O)Nc3ccccc3C(=O)OC(C)C)nn2c2c1CCC2 [Compound 110],% NH4-N Remaining After 2 Weeks Incubation,0.01 ppm,0%
same,% NH4-N Remaining After 2 Weeks Incubation,0.1 ppm,0%
same,% NH4-N Remaining After 2 Weeks Incubation,1 ppm,13%
same,% NH4-N Remaining After 2 Weeks Incubation,10 ppm,59%
Cc1cc(C)n2nc(S(=O)(=O)Nc3ccc(F)cc3F)nc2n1 [Compound 29],% NH4-N Remaining After 2 Weeks Incubation,0.01 ppm,0%
same,% NH4-N Remaining After 2 Weeks Incubation,0.1 ppm,0%
same,% NH4-N Remaining After 2 Weeks Incubation,1 ppm,1%
same,% NH4-N Remaining After 2 Weeks Incubation,10 ppm,51%
CCCSc1ccccc1NS(=O)(=O)c1nc2nc(C)cc(C)n2n1 [Compound 67],% NH4-N Remaining After 2 Weeks Incubation,0.06 ppm,0%
same,% NH4-N Remaining After 2 Weeks Incubation,0.25 ppm,0%
same,% NH4-N Remaining After 2 Weeks Incubation,1 ppm,41%
same,% NH4-N Remaining After 2 Weeks Incubation,4 ppm,69%
Cc1c(C(=O)O)cnc2nc(S(=O)(=O)Nc3c(Cl)cccc3Cl)nn12 [Compound 224],% NH4-N Remaining After 2 Weeks Incubation,0.06 ppm,1%
same,% NH4-N Remaining After 2 Weeks Incubation,0.25 ppm,0%
same,% NH4-N Remaining After 2 Weeks Incubation,1 ppm,27%
same,% NH4-N Remaining After 2 Weeks Incubation,4 ppm,63%
Cc1cc(C)n2nc(S(=O)(=O)Nc3ccccc3C(=O)OC(C)C)nc2n1 [Compound 36],% NH4-N Remaining After 2 Weeks Incubation,0.01 ppm,0%
same,% NH4-N Remaining After 2 Weeks Incubation,0.1 ppm,0%
same,% NH4-N Remaining After 2 Weeks Incubation,1 ppm,17%
same,% NH4-N Remaining After 2 Weeks Incubation,10 ppm,60%
O=S(=O)(Nc1ccccc1)c1nc2ncc(Cl)cn2n1 [Compound 120],% NH4-N Remaining After 2 Weeks Incubation,0.06 ppm,71%
same,% NH4-N Remaining After 2 Weeks Incubation,0.25 ppm,46%
same,% NH4-N Remaining After 2 Weeks Incubation,1 ppm,63%
same,% NH4-N Remaining After 2 Weeks Incubation,4 ppm,87%
Cc1cc(C)n2nc(S(=O)(=O)Nc3c(Cl)ccc(C)c3Cl)nc2n1 [Compound 46],% NH4-N Remaining After 2 Weeks Incubation,0.01 ppm,50%
same,% NH4-N Remaining After 2 Weeks Incubation,0.1 ppm,71%
same,% NH4-N Remaining After 2 Weeks Incubation,1 ppm,88%
same,% NH4-N Remaining After 2 Weeks Incubation,10 ppm,94%
Cc1cc(C)n2nc(S(=O)(=O)Nc3c(F)cccc3C(=O)O)nc2n1 [Compound 27],% NH4-N Remaining After 2 Weeks Incubation,0.01 ppm,0%
same,% NH4-N Remaining After 2 Weeks Incubation,0.1 ppm,0%
same,% NH4-N Remaining After 2 Weeks Incubation,1 ppm,0%
same,% NH4-N Remaining After 2 Weeks Incubation,10 ppm,35%
Cc1cc(C)n2nc(S(=O)(=O)Nc3cccnc3Cl)nc2n1 [Compound 255],% NH4-N Remaining After 2 Weeks Incubation,0.01 ppm,0%
same,% NH4-N Remaining After 2 Weeks Incubation,0.1 ppm,0%
same,% NH4-N Remaining After 2 Weeks Incubation,1 ppm,37%
same,% NH4-N Remaining After 2 Weeks Incubation,10 ppm,72%
Cc1ccn2nc(S(=O)(=O)Nc3c(Cl)ccc(C)c3Cl)nc2n1 [Compound 147],% NH4-N Remaining After 2 Weeks Incubation,0.06 ppm,41%
same,% NH4-N Remaining After 2 Weeks Incubation,0.25 ppm,55%
same,% NH4-N Remaining After 2 Weeks Incubation,1 ppm,72%
same,% NH4-N Remaining After 2 Weeks Incubation,4 ppm,87%
COC(=O)c1cccc(F)c1NS(=O)(=O)c1nc2nc(C)ccn2n1 [Compound 159],% NH4-N Remaining After 2 Weeks Incubation,0.06 ppm,49%
same,% NH4-N Remaining After 2 Weeks Incubation,0.25 ppm,56%
same,% NH4-N Remaining After 2 Weeks Incubation,1 ppm,80%
same,% NH4-N Remaining After 2 Weeks Incubation,4 ppm,94%
Cc1cc(C)n2nc(S(=O)(=O)Nc3c(C)cccc3C(=O)O)nc2n1 [Compound 103],% NH4-N Remaining After 2 Weeks Incubation,0.06 ppm,0%
same,% NH4-N Remaining After 2 Weeks Incubation,0.25 ppm,15%
same,% NH4-N Remaining After 2 Weeks Incubation,1 ppm,43%
same,% NH4-N Remaining After 2 Weeks Incubation,4 ppm,53%
COC(=O)c1ccccc1NS(=O)(=O)c1nc2nc(C)c3c(n2n1)CCC3 [Compound 109],% NH4-N Remaining After 2 Weeks Incubation,0.01 ppm,0%
same,% NH4-N Remaining After 2 Weeks Incubation,0.1 ppm,0%
same,% NH4-N Remaining After 2 Weeks Incubation,1 ppm,41%
same,% NH4-N Remaining After 2 Weeks Incubation,10 ppm,92%
Cc1cc(C)n2nc(S(=O)(=O)Nc3ccc(Cl)cc3C(=O)N(C)C)nc2n1 [Compound 43],% NH4-N Remaining After 2 Weeks Incubation,0.01 ppm,0%
same,% NH4-N Remaining After 2 Weeks Incubation,0.1 ppm,0%
same,% NH4-N Remaining After 2 Weeks Incubation,1 ppm,44%
same,% NH4-N Remaining After 2 Weeks Incubation,10 ppm,91%
Cc1cc(C)n2nc(S(=O)(=O)Nc3ccccc3C(=O)N(C)C)nc2n1 [Compound 42],% NH4-N Remaining After 2 Weeks Incubation,0.01 ppm,0%
same,% NH4-N Remaining After 2 Weeks Incubation,0.1 ppm,0%
same,% NH4-N Remaining After 2 Weeks Incubation,1 ppm,8%
same,% NH4-N Remaining After 2 Weeks Incubation,10 ppm,68%
Cc1cc(C)n2nc(S(=O)(=O)Nc3ccccc3SC(F)(F)F)nc2n1 [Compound 55],% NH4-N Remaining After 2 Weeks Incubation,0.06 ppm,19%
same,% NH4-N Remaining After 2 Weeks Incubation,0.25 ppm,91%
same,% NH4-N Remaining After 2 Weeks Incubation,1 ppm,65%
same,% NH4-N Remaining After 2 Weeks Incubation,4 ppm,84%
O=[N+]([O-])c1ccc(-c2cnc3nc(S(=O)(=O)Nc4c(Cl)cccc4Cl)nn3c2)cc1 [Compound 226],% NH4-N Remaining After 2 Weeks Incubation,0.06 ppm,2%
same,% NH4-N Remaining After 2 Weeks Incubation,0.25 ppm,17%
same,% NH4-N Remaining After 2 Weeks Incubation,1 ppm,42%
same,% NH4-N Remaining After 2 Weeks Incubation,4 ppm,69%
CSc1ccccc1NS(=O)(=O)c1nc2ncccn2n1 [Compound 135],% NH4-N Remaining After 2 Weeks Incubation,0.01 ppm,0%
same,% NH4-N Remaining After 2 Weeks Incubation,0.1 ppm,0%
same,% NH4-N Remaining After 2 Weeks Incubation,1 ppm,12%
same,% NH4-N Remaining After 2 Weeks Incubation,10 ppm,100%
Cc1cc(C)n2nc(S(=O)(=O)Nc3ccc(Cl)cc3Br)nc2n1 [Compound 40],% NH4-N Remaining After 2 Weeks Incubation,0.6 ppm,0%
same,% NH4-N Remaining After 2 Weeks Incubation,1.25 ppm,0%
same,% NH4-N Remaining After 2 Weeks Incubation,2.5 ppm,40%
same,% NH4-N Remaining After 2 Weeks Incubation,5 ppm,17%
same,% NH4-N Remaining After 2 Weeks Incubation,10 ppm,66%
Cc1cc(C)n2nc(S(=O)(=O)Nc3ccccc3[S+]([O-])C(F)(F)C(F)F)nc2n1 (stereo not drawn) [Compound 60],% NH4-N Remaining After 2 Weeks Incubation,0.6 ppm,0%
same,% NH4-N Remaining After 2 Weeks Incubation,1.25 ppm,0%
same,% NH4-N Remaining After 2 Weeks Incubation,2.5 ppm,8%
same,% NH4-N Remaining After 2 Weeks Incubation,5 ppm,41%
same,% NH4-N Remaining After 2 Weeks Incubation,10 ppm,58%
Cc1cc(C)n2nc(S(=O)(=O)Nc3c(C)cccc3C(=O)N(C)C)nc2n1 [Compound 62],% NH4-N Remaining After 2 Weeks Incubation,0.6 ppm,0%
same,% NH4-N Remaining After 2 Weeks Incubation,1.25 ppm,13%
same,% NH4-N Remaining After 2 Weeks Incubation,5 ppm,55%
same,% NH4-N Remaining After 2 Weeks Incubation,10 ppm,75%
Cc1ccn2nc(S(=O)(=O)Nc3ccccc3[S+]([O-])C(F)(F)C(F)F)nc2n1 (stereo not drawn) [Compound 149],% NH4-N Remaining After 2 Weeks Incubation,0.6 ppm,0%
same,% NH4-N Remaining After 2 Weeks Incubation,1.25 ppm,0%
same,% NH4-N Remaining After 2 Weeks Incubation,2.5 ppm,5%
same,% NH4-N Remaining After 2 Weeks Incubation,5 ppm,26%
same,% NH4-N Remaining After 2 Weeks Incubation,10 ppm,62%
O=S(=O)(Nc1c(F)cccc1Cl)c1nc2ncc(Cl)cn2n1 [Compound 116],% NH4-N Remaining After 2 Weeks Incubation,0.06 ppm,27%
same,% NH4-N Remaining After 2 Weeks Incubation,0.25 ppm,50%
same,% NH4-N Remaining After 2 Weeks Incubation,1 ppm,57%
same,% NH4-N Remaining After 2 Weeks Incubation,4 ppm,81%
